In patent publication US20260176320A1, “MODULATORS OF G-PROTEIN COUPLED RECEPTORS” (priority 2018, published 2026):
Read-outs that look alike come from different tables or passages of the source. Square brackets hold non-standard residues; d marks the D form. Peptide text beside a SMILES is read from it. * marks the point of attachment. X1 = O=C(CSCC(=O)*)NCCN1C(=O)c2ccccc2C1=O; Aib = CC(C)(N)C(=O)O

Experiments:
Assay type in all cases: cell-based
[1] = target: T1, GLP-1R (Homo sapiens, UniProt P43220); test: PathHunter β-arrestin assay
Outline: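 Cells (5,000/well) plated overnight, then exposed to a 22-point 2-fold agonist dilution series in medium with 0.2% BSA for 90 min at 37 °C, 5% CO2. PathHunter detection reagent added; after 3 h at room temperature in the dark, luminescence read.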

[2] = target: T1, GLP-1R; test: HitHunter cAMP assay (GLP-1R); details: cAMP; for Emax: read-out: (Emax) GLP-1R
Outline: (§1)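 Suspension cells (10,000/well) in HBSS with 10 mM HEPES, 625 μM IBMX, 0.2% BSA exposed to 22-point 2-fold agonist series in duplicate for 30 min at room temperature. cAMP measured by antibody immunocompetition with overnight development, luminescence read-out.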

[3] = target: T2, GIP-R (Homo sapiens, UniProt P48546); test: HitHunter cAMP assay (GIP-R); details: cAMP; for Emax: read-out: (Emax) GIP-R
T2 sequence (P48546 22-466): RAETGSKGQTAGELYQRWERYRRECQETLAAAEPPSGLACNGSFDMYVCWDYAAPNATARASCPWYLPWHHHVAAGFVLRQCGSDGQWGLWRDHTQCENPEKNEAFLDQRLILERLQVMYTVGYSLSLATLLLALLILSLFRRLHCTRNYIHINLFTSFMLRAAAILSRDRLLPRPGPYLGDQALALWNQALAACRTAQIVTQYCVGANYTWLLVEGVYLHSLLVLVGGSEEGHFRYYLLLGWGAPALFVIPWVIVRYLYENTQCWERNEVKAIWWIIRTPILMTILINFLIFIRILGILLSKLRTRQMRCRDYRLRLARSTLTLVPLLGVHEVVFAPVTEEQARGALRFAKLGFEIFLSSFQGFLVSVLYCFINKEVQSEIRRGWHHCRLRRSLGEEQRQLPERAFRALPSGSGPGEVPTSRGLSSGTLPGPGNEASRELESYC
Outline: as §1

[4] = PathHunter β-arrestin assay, read-out: β-arrestin activity EC50
[5] = Table 3, read-out: EC50 GLP-1R/nM
[6] = Table 3A, read-out: EC50 GLP-1R/nM
[7] = Table 3, read-out: EC50 GIP-R/nM
[8] = Table 3A, read-out: EC50 GIP-R/nM

T1 sequence (P43220 24-463): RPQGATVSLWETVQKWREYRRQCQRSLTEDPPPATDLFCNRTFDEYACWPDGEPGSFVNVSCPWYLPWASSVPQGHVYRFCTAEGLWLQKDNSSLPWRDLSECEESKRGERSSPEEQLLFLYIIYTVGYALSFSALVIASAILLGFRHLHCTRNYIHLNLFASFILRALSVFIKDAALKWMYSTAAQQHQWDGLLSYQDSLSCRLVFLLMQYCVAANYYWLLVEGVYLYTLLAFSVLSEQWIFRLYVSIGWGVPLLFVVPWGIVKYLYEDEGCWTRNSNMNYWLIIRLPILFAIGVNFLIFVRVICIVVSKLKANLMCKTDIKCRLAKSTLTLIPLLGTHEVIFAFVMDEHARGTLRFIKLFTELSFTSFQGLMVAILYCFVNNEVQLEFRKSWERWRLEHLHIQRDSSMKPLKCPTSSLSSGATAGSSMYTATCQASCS

CC[C@H](C)[C@H](NC(=O)[C@H](CO)NC(=O)[C@H](Cc1ccc(O)cc1)NC(=O)[C@H](CC(=O)O)NC(=O)[C@H](CO)NC(=O)[C@@H](NC(=O)[C@H](Cc1ccccc1)NC(=O)[C@@H](NC(=O)CNC(=O)[C@H](CCC(=O)O)NC(=O)CSCC(=O)NCCn1ccccc1=O)[C@@H](C)O)[C@@H](C)O)C(=O)N[C@@H](Cc1ccc(O)cc1)C(=O)N[C@@H](CC(C)C)C(=O)N[C@@H](CC(=O)O)C(=O)N[C@@H](CCCCN)C(=O)N[C@@H](CCC(N)=O)C(=O)N[C@@H](C)C(=O)N[C@@H](C)C(=O)NC(C)(C)C(=O)N[C@@H](CCC(=O)O)C(=O)N[C@@H](Cc1ccccc1)C(=O)N[C@H](C(=O)N[C@@H](CC(N)=O)C(=O)N[C@@H](Cc1c[nH]c2ccccc12)C(=O)N[C@@H](CC(C)C)C(=O)N[C@@H](CC(C)C)C(=O)N[C@@H](C)C(=O)NCC(=O)NCC(=O)N1CCC[C@H]1C(=O)N[C@@H](CO)C(=O)N[C@@H](CO)C(=O)NCC(=O)N[C@@H](C)C(=O)N1CCC[C@H]1C(=O)N1CCC[C@H]1C(=O)N1CCC[C@H]1C(=O)N[C@@H](CO)C(=O)N[C@@H](CCCCN)C(N)=O)C(C)C [Compound 139]
EC50 [1, 4]: > 1000 nM | Emax ([2]; Table 3): 102% | EC50 [2, 5]: 0.1 to 1 nM | Emax ([2]; Table 3A): 102% | EC50 [2, 6]: 0.1 to 1 nM | Emax ([3]; Table 3): 79% | EC50 [3, 7]: 1 to 10 nM | Emax ([3]; Table 3A): 79% | EC50 [3, 8]: 1 to 10 nM

CC[C@H](C)[C@H](NC(=O)[C@H](CO)NC(=O)[C@H](Cc1ccc(O)cc1)NC(=O)[C@H](CC(=O)O)NC(=O)[C@H](CO)NC(=O)[C@@H](NC(=O)[C@H](Cc1ccccc1)NC(=O)[C@@H](NC(=O)CNC(=O)[C@H](CCC(=O)O)NC(=O)CSCC(=O)NCCN1C(=O)c2ccccc2C1=O)[C@@H](C)O)[C@@H](C)O)C(=O)N[C@@H](Cc1ccc(O)cc1)C(=O)N[C@@H](CC(C)C)C(=O)N[C@@H](CC(=O)O)C(=O)N[C@@H](CCCCN)C(=O)N[C@@H](CCC(N)=O)C(=O)N[C@@H](C)C(=O)N[C@H](C(=O)NC(C)(C)C(=O)N[C@@H](CCC(=O)O)C(=O)N[C@@H](Cc1ccccc1)C(=O)N[C@H](C(=O)N[C@@H](CC(N)=O)C(=O)N[C@@H](Cc1c[nH]c2ccccc12)C(=O)N[C@@H](CC(C)C)C(=O)N[C@@H](CC(C)C)C(=O)N[C@@H](C)C(=O)NCC(=O)NCC(=O)N1CCC[C@H]1C(=O)N[C@@H](CO)C(=O)N[C@@H](CO)C(=O)NCC(=O)N[C@@H](C)C(=O)N1CCC[C@H]1C(=O)N1CCC[C@H]1C(=O)N1CCC[C@H]1C(=O)N[C@@H](CO)C(=O)N[C@@H](CCCCN)C(N)=O)C(C)C)C(C)C [Compound 147] (X1-EGTFTSDYSIYLDKQAV[Aib]EFVNWLLAGGPSSGAPPPSK-NH2)
EC50 [1]: > 1000 nM | EC50 ([2]; EC50 GLP-1R/nM, Table 3): 1 to 10 nM | EC50 ([2]; EC50 GLP-1R/nM, Table 3A): 1 to 10 nM | Emax ([2]; Table 3): 87 to 97% | Emax ([2]; Table 3A): 87 to 97% | EC50 ([3]; EC50 GIP-R/nM, Table 3): < 0.1 nM | EC50 ([3]; EC50 GIP-R/nM, Table 3A): < 0.1 nM | Emax ([3]; Table 3): 114 to 128% | Emax ([3]; Table 3A): 114 to 128%

CC[C@H](C)[C@H](NC(=O)[C@H](CO)NC(=O)[C@H](Cc1ccc(O)cc1)NC(=O)[C@H](CC(=O)O)NC(=O)[C@H](CO)NC(=O)[C@@H](NC(=O)[C@H](Cc1ccccc1)NC(=O)[C@@H](NC(=O)CNC(=O)[C@H](CCC(=O)O)NC(=O)CCCCC(=O)NCCN1C(=O)c2ccccc2C1=O)[C@@H](C)O)[C@@H](C)O)C(=O)N[C@@H](Cc1ccc(O)cc1)C(=O)N[C@@H](CC(C)C)C(=O)N[C@@H](CC(=O)O)C(=O)N[C@@H](CCCCN)C(=O)N[C@@H](CCC(N)=O)C(=O)N[C@@H](C)C(=O)N[C@@H](C)C(=O)NC(C)(C)C(=O)N[C@@H](CCC(=O)O)C(=O)N[C@@H](Cc1ccccc1)C(=O)N[C@H](C(=O)N[C@@H](CC(N)=O)C(=O)N[C@@H](Cc1c[nH]c2ccccc12)C(=O)N[C@@H](CC(C)C)C(=O)N[C@@H](CC(C)C)C(=O)N[C@@H](C)C(=O)NCC(=O)NCC(=O)N1CCC[C@H]1C(=O)N[C@@H](CO)C(=O)N[C@@H](CO)C(=O)NCC(=O)N[C@@H](C)C(=O)N1CCC[C@H]1C(=O)N1CCC[C@H]1C(=O)N1CCC[C@H]1C(=O)N[C@@H](CO)C(=O)N[C@@H](CCCCN)C(N)=O)C(C)C [Compound 181]
EC50 [1]: > 1000 nM | EC50 ([2]; EC50 GLP-1R/nM, Table 3): 10 to 100 nM | EC50 ([2]; EC50 GLP-1R/nM, Table 3A): 10 to 100 nM | Emax ([2]; Table 3): 103% | Emax ([2]; Table 3A): 103% | EC50 ([3]; EC50 GIP-R/nM, Table 3): 1 to 10 nM | EC50 ([3]; EC50 GIP-R/nM, Table 3A): 1 to 10 nM | Emax ([3]; Table 3): 102% | Emax ([3]; Table 3A): 102%

CCCCCCCCCCCCCCCC(=O)N[C@@H](CCC(=O)NCCCC[C@H](NC(=O)[C@H](CO)NC(=O)[C@@H]1CCCN1C(=O)[C@@H]1CCCN1C(=O)[C@@H]1CCCN1C(=O)[C@H](C)NC(=O)CNC(=O)[C@H](CO)NC(=O)[C@H](CO)NC(=O)[C@@H]1CCCN1C(=O)CNC(=O)CNC(=O)[C@H](C)NC(=O)[C@H](CC(C)C)NC(=O)[C@H](CC(C)C)NC(=O)[C@H](Cc1c[nH]c2ccccc12)NC(=O)[C@H](CC(N)=O)NC(=O)[C@@H](NC(=O)[C@H](Cc1ccccc1)NC(=O)[C@H](CCC(=O)O)NC(=O)C(C)(C)NC(=O)[C@H](C)NC(=O)[C@H](C)NC(=O)[C@H](CCC(N)=O)NC(=O)[C@H](CCCCN)NC(=O)[C@H](CC(=O)O)NC(=O)[C@H](CC(C)C)NC(=O)[C@H](Cc1ccc(O)cc1)NC(=O)[C@@H](NC(=O)[C@H](CO)NC(=O)[C@H](Cc1ccc(O)cc1)NC(=O)[C@H](CC(=O)O)NC(=O)[C@H](CO)NC(=O)[C@@H](NC(=O)[C@H](Cc1ccccc1)NC(=O)[C@@H](NC(=O)CNC(=O)[C@H](CCC(=O)O)NC(=O)CSCC(=O)NCCn1c(C)cccc1=O)[C@@H](C)O)[C@@H](C)O)[C@@H](C)CC)C(C)C)C(N)=O)C(=O)O [Compound 240]
EC50 [1]: > 1000 nM | EC50 ([2]; EC50 GLP-1R/nM, Table 3A): 0.1 to 1 nM | Emax ([2]; Table 3A): 97% | EC50 ([3]; EC50 GIP-R/nM, Table 3A): 1 to 10 nM | Emax ([3]; Table 3A): 60%

CC[C@H](C)[C@H](NC(=O)[C@H](CO)NC(=O)[C@H](Cc1ccc(O)cc1)NC(=O)[C@H](CC(=O)O)NC(=O)[C@H](CO)NC(=O)[C@@H](NC(=O)[C@H](Cc1ccccc1)NC(=O)[C@@H](NC(=O)CNC(=O)[C@H](CCC(=O)O)NC(=O)CCCCNC(=O)CN1C(=O)CSC1=O)[C@@H](C)O)[C@@H](C)O)C(=O)N[C@@H](Cc1ccc(O)cc1)C(=O)N[C@@H](CC(C)C)C(=O)N[C@@H](CC(=O)O)C(=O)N[C@@H](CCCCN)C(=O)N[C@@H](CCC(N)=O)C(=O)N[C@@H](C)C(=O)N[C@@H](C)C(=O)NC(C)(C)C(=O)N[C@@H](CCC(=O)O)C(=O)N[C@@H](Cc1ccccc1)C(=O)N[C@H](C(=O)N[C@@H](CC(N)=O)C(=O)N[C@@H](Cc1c[nH]c2ccccc12)C(=O)N[C@@H](CC(C)C)C(=O)N[C@@H](CC(C)C)C(=O)N[C@@H](C)C(=O)NCC(=O)NCC(=O)N1CCC[C@H]1C(=O)N[C@@H](CO)C(=O)N[C@@H](CO)C(=O)NCC(=O)N[C@@H](C)C(=O)N1CCC[C@H]1C(=O)N1CCC[C@H]1C(=O)N1CCC[C@H]1C(=O)N[C@@H](CO)C(=O)N[C@@H](CCCCN)C(N)=O)C(C)C [Compound 177]
EC50 [1, 4]: > 1000 nM | Emax ([2]; Table 3): 96% | EC50 [2, 5]: 1 to 10 nM | Emax ([2]; Table 3A): 96% | EC50 [2, 6]: 1 to 10 nM | EC50 [3, 7]: > 1000 nM | EC50 [3, 8]: > 1000 nM | Emax at 1 µM ([3]; read-out: (Emax) GIP-R at 1 μM, Table 3, at 1 μM): 9%

CCCCCCCCCCCCCCCC(=O)N[C@@H](CCC(=O)NCCCC[C@H](NC(=O)[C@H](CO)NC(=O)[C@@H]1CCCN1C(=O)[C@@H]1CCCN1C(=O)[C@@H]1CCCN1C(=O)[C@H](C)NC(=O)CNC(=O)[C@H](CO)NC(=O)[C@H](CO)NC(=O)[C@@H]1CCCN1C(=O)CNC(=O)CNC(=O)[C@H](C)NC(=O)[C@H](CC(C)C)NC(=O)[C@H](CC(C)C)NC(=O)[C@H](Cc1c[nH]c2ccccc12)NC(=O)[C@H](CC(N)=O)NC(=O)[C@@H](NC(=O)[C@H](Cc1ccccc1)NC(=O)[C@H](CCC(=O)O)NC(=O)C(C)(C)NC(=O)[C@H](C)NC(=O)[C@H](C)NC(=O)[C@H](CCC(N)=O)NC(=O)[C@H](CCCCN)NC(=O)[C@H](CC(=O)O)NC(=O)[C@H](CC(C)C)NC(=O)[C@H](Cc1ccc(O)cc1)NC(=O)[C@@H](NC(=O)[C@H](CO)NC(=O)[C@H](Cc1ccc(O)cc1)NC(=O)[C@H](CC(=O)O)NC(=O)[C@H](CO)NC(=O)[C@@H](NC(=O)[C@H](Cc1ccccc1)NC(=O)[C@@H](NC(=O)CNC(=O)[C@H](CCC(=O)O)NC(=O)C(C)(C)NC(=O)CCN1CCCCC1=O)[C@@H](C)O)[C@@H](C)O)[C@@H](C)CC)C(C)C)C(N)=O)C(=O)O [Compound 210]
EC50 [1, 4]: 10 to 1000 nM | Emax ([2]; Table 3A): 90% | EC50 [2, 6]: < 0.1 nM | Emax ([3]; Table 3A): 40% | EC50 [3, 8]: 10 to 100 nM
